Assay results reported in ChEMBL document CHEMBL5576084, “Development of chromone-thiazolidine-2,4-dione Knoevenagel conjugates as apoptosis inducing agents” (Bioorg Med Chem Lett, 2024).
The source made the active and inactive calls. The calls are words filed in the database; no cut-off is given here.

Key:
[1] = tested on: A549; experiment: Cell cycle arrest in human A549 cells assessed as increase in G0/G1phase cell frequency at 1.5 uM by PI staining based flow cytometric analysis relative to control; format: functional
[2] = tested on: A549; experiment: Induction of apoptosis in human A549 cells assessed as reduction in green intensity at 1.5 uM by acridine orange/EtBr staining based analysis; format: functional, cell-based
[3] = tested on: A549; experiment: Induction of apoptosis in human A549 cells assessed as increase in yellowish green intensity at 1.5 uM by acridine orange/EtBr staining based analysis; format: functional, cell-based
[4] = tested on: A549; experiment: Cytotoxicity against human A549 cells assessed as inhibition of cell growth; format: functional, cell-based
[5] = tested on: A549; experiment: Induction of apoptosis in human A549 cells assessed as necrotic cells at 1.5 uM by Annexin V-FITC/PI staining based flow cytometric analysis (reference value: 0.46 %); format: functional
[6] = tested on: A549; experiment: Induction of apoptosis in human A549 cells assessed as increase in late apoptotic cells by measuring orange red signals at 1.5 uM by acridine orange/EtBr staining based analysis; format: functional, cell-based
[7] = tested on: A549; experiment: Induction of apoptosis in human A549 cells assessed as late apoptotic cells at 1.5 uM by Annexin V-FITC/PI staining based flow cytometric analysis (reference value: 0.19 %); format: functional
[8] = tested on: A549; experiment: Induction of apoptosis in human A549 cells assessed as increase in necrotic cells by measuring red signals at 1.5 uM by acridine orange/EtBr staining based analysis; format: functional, cell-based
[9] = tested on: A549; experiment: Induction of apoptosis in human A549 cells assessed as inhibition of Bcl-2 expression at 1.5 uM by PI staining based flow cytometric analysis relative to control; format: functional
[10] = tested on: A549; experiment: Induction of apoptosis in human A549 cells assessed as early apoptotic cells at 1.5 uM by Annexin V-FITC/PI staining based flow cytometric analysis (reference value: 0.32 %); format: functional
[11] = tested on: A549; experiment: Induction of ROS generation in human A549 cells assessed as fold change at 1.5 uM by DCFDA-H2 fluorescent dye based flow cytometric analysis relative to control; format: functional
[12] = tested on: A549; experiment: Induction of apoptosis in human A549 cells assessed as increase in necrotic cells by measuring red signals at 3 to 9 uM by acridine orange/EtBr staining based analysis; format: functional, cell-based; conditions: dose 3-9 µM
[13] = tested on: A549; experiment: Induction of apoptosis in human A549 cells assessed as reduction in Bcl-2 expression at 9 uM by PI staining based flow cytometric analysis relative to control; format: functional; set-up: scale not given: the % may be the effect or the level left
[14] = tested on: A549; experiment: Induction of apoptosis in human A549 cells assessed as reduction in Bcl-2 expression at 3 uM by PI staining based flow cytometric analysis relative to control; format: functional; set-up: scale not given: the % may be the effect or the level left
[15] = tested on: A549; experiment: Induction of DNA damage in human A549 cells assessed as decrease in green fluorescence at 3 to 9 uM by acridine orange/EtBr staining based analysis; format: functional, cell-based; conditions: dose 3-9 µM
[16] = tested on: A549; experiment: Induction of apoptosis in human A549 cells assessed as early apoptotic cells at 3 uM by Annexin V-FITC/PI staining based flow cytometric analysis (reference value: 0.32 %); format: functional
[17] = tested on: A549; experiment: Induction of apoptosis in human A549 cells assessed as late apoptotic cells at 6 uM by Annexin V-FITC/PI staining based flow cytometric analysis (reference value: 0.19 %); format: functional
[18] = tested on: HepG2; experiment: Cytotoxicity against human HepG2 cells assessed as inhibition of cell growth incubated for 48 hrs by MTT assay; format: functional, cell-based; conditions: HepG2, 48 h
[19] = tested on: A549; experiment: Induction of DNA damage in human A549 cells assessed as DNA condensation by measuring increase in fluorescence intensity at 3 to 9 uM by DAPI staining based fluorescence microscopic analysis; format: functional, cell-based; conditions: dose 3-9 µM
[20] = tested on: A549; experiment: Induction of apoptosis in human A549 cells assessed as increase in late apoptotic cells by measuring orange red signals at 3 to 9 uM by acridine orange/EtBr staining based analysis; format: functional, cell-based; conditions: dose 3-9 µM
[21] = tested on: A549; experiment: Induction of apoptosis in human A549 cells assessed as necrotic cells at 6 uM by Annexin V-FITC/PI staining based flow cytometric analysis (reference value: 0.46 %); format: functional
[22] = Cytotoxicity against HEK293 cells assessed as inhibition of cell growth incubated for 48 hrs by MTT assay; format: toxicity, cell-based; conditions: human
[23] = tested on: A549; experiment: Cell cycle arrest in human A549 cells assessed as accumulation of cells at G2/M phase at 3 uM by PI staining based flow cytometric analysis (reference value: 11.5 %); format: functional
[24] = tested on: A549; experiment: Induction of apoptosis in human A549 cells assessed as appearance of shrunken cells with fragmented nucleus at 3 to 9 uM by DAPI staining based fluorescence microscopic analysis; format: functional, cell-based; conditions: dose 3-9 µM
[25] = tested on: A549; experiment: Cytotoxicity against human A549 cells assessed as inhibition of cell growth incubated for 48 hrs by MTT assay; format: functional, cell-based; conditions: A549, 48 h
[26] = tested on: A549; experiment: Induction of apoptosis in human A549 cells assessed as late apoptotic cells at 3 uM by Annexin V-FITC/PI staining based flow cytometric analysis (reference value: 0.19 %); format: functional
[27] = tested on: MCF7; experiment: Cytotoxicity against human MCF7 cells assessed as inhibition of cell growth incubated for 48 hrs by MTT assay; format: functional, cell-based; conditions: MCF7, 48 h
[28] = tested on: A549; experiment: Induction of ROS generation in human A549 cells assessed as fold change at 9 uM by DCFDA-H2 fluorescent dye based flow cytometric analysis relative to control; format: functional
[29] = tested on: A549; experiment: Induction of apoptosis in human A549 cells assessed as early apoptotic cells at 6 uM by Annexin V-FITC/PI staining based flow cytometric analysis (reference value: 0.32 %); format: functional
[30] = tested on: A549; experiment: Induction of ROS generation in human A549 cells assessed as fold change at 6 uM by DCFDA-H2 fluorescent dye based flow cytometric analysis relative to control; format: functional
[31] = tested on: A549; experiment: Induction of apoptosis in human A549 cells assessed as necrotic cells at 3 uM by Annexin V-FITC/PI staining based flow cytometric analysis (reference value: 0.46 %); format: functional
[32] = tested on: HCT-116; experiment: Cytotoxicity against human HCT-116 cells assessed as inhibition of cell growth incubated for 48 hrs by MTT assay; format: functional, cell-based; conditions: HCT-116, 48 h
[33] = tested on: A549; experiment: Induction of apoptosis in human A549 cells assessed as late apoptotic cells at 9 uM by Annexin V-FITC/PI staining based flow cytometric analysis (reference value: 0.19 %); format: functional
[34] = tested on: A549; experiment: Induction of apoptosis in human A549 cells assessed as early apoptotic cells at 9 uM by Annexin V-FITC/PI staining based flow cytometric analysis (reference value: 0.32 %); format: functional
[35] = tested on: A549; experiment: Induction of apoptosis in human A549 cells assessed as necrotic cells at 9 uM by Annexin V-FITC/PI staining based flow cytometric analysis (reference value: 0.46 %); format: functional
[36] = tested on: A549; experiment: Cell cycle arrest in human A549 cells assessed as accumulation of cells at G2/M phase at 6 uM by PI staining based flow cytometric analysis (reference value: 11.5 %); format: functional
[37] = tested on: SK-MEL-28; experiment: Cytotoxicity against human SK-MEL-28 cells assessed as inhibition of cell growth incubated for 48 hrs by MTT assay; format: functional, cell-based; conditions: SK-MEL-28, 48 h
[38] = tested on: A549; experiment: Cell cycle arrest in human A549 cells assessed as accumulation of cells at G2/M phase at 9 uM by PI staining based flow cytometric analysis (reference value: 11.5 %); format: functional
[39] = tested on: A549; experiment: Induction of DNA damage in human A549 cells assessed as increase in red fluorescence at 3 to 9 uM by acridine orange/EtBr staining based analysis; format: functional, cell-based; conditions: dose 3-9 µM
[40] = tested on: A549; experiment: Induction of ROS generation in human A549 cells assessed as fold change at 3 uM by DCFDA-H2 fluorescent dye based flow cytometric analysis relative to control; format: functional
[41] = tested on: A549; experiment: Induction of apoptosis in human A549 cells assessed as increase in yellowish green intensity at 3 to 9 uM by acridine orange/EtBr staining based analysis; format: functional, cell-based; conditions: dose 3-9 µM
[42] = tested on: A549; experiment: Induction of apoptosis in human A549 cells assessed as reduction in green intensity at 3 to 9 uM by acridine orange/EtBr staining based analysis; format: functional, cell-based; conditions: dose 3-9 µM
[43] = tested on: A549; experiment: Induction of apoptosis in human A549 cells assessed as reduction in Bcl-2 expression at 6 uM by PI staining based flow cytometric analysis relative to control; format: functional; set-up: scale not given: the % may be the effect or the level left

CC1(C)CCC(CN2CCN(c3ccc(C(=O)NS(=O)(=O)c4ccc(NCC5CCOCC5)c([N+](=O)[O-])c4)c(Oc4cnc5[nH]ccc5c4)c3)CC2)=C(c2ccc(Cl)cc2)C1 [VENETOCLAX]
Activity [1]: 6.9% | Activity [2]: Active | Activity [3]: Active | IC50 [4]: 1.5 µM | Activity [5]: 5.5% | Activity [6]: Active | Activity [7]: 4.9% | Activity [8]: Active | inhibition at 1.5 µM [9]: 61.7% | Activity [10]: 1.5% | fold change (FC) [11]: 9.53

COc1ccc(C(=O)CN2C(=O)S/C(=C\c3coc4cc(Br)ccc4c3=O)C2=O)cc1
Activity [12]: Active | Activity [13]: 79.1% | Activity [14]: 31.7% | Activity [15]: Active | Activity [16]: 1.94% | Activity [17]: 2.2% | IC50 [18]: > 10 µM | Activity [19]: Active | Activity [20]: Active | Activity [21]: 0.3% | IC50 at 48 h [22]: 14.1 µM | Activity [23]: 18.08% | Activity [24]: Active | IC50 [25]: 6.1 µM | Activity [26]: 0.98% | IC50 [27]: 8.9 µM | fold change (FC) [28]: 8.9 | Activity [29]: 3.1% | fold change (FC) [30]: 1.4 | Activity [31]: 0.27% | IC50 [32]: > 10 µM | Activity [33]: 6.6% | Activity [34]: 10.9% | Activity [35]: 0.29% | Activity [36]: 18.4% | IC50 [37]: > 10 µM | Activity [38]: 21.6% | Activity [39]: Active | fold change (FC) [40]: 1.07 | Activity [41]: Active | Activity [42]: Active | Activity [43]: 38.2%

O=C(CN1C(=O)S/C(=C\c2coc3ccccc3c2=O)C1=O)c1ccc(Cl)cc1
IC50 [18]: 12.3 µM | IC50 at 48 h [22]: 25 µM | IC50 [25]: > 10 µM | IC50 [27]: 8.7 µM | IC50 [32]: > 10 µM | IC50 [37]: > 10 µM

Cc1ccc2occ(/C=C3\SC(=O)N(CC(=O)c4ccc(Cl)cc4)C3=O)c(=O)c2c1
IC50 [18]: > 10 µM | IC50 at 48 h [22]: 15.2 µM | IC50 [25]: 6.3 µM | IC50 [27]: 8.9 µM | IC50 [32]: > 10 µM | IC50 [37]: > 10 µM

O=C(CN1C(=O)S/C(=C\c2coc3ccccc3c2=O)C1=O)c1ccc(Br)cc1
IC50 [18]: > 10 µM | IC50 at 48 h [22]: 21.1 µM | IC50 [25]: 7.8 µM | IC50 [27]: > 10 µM | IC50 [32]: > 10 µM | IC50 [37]: > 10 µM
